Experimental data reported in PubChem BioAssay AID1919016 (Molecular Pharmacology Branch, DTP, NCI, 2023).

Tested on: NCI-H196 complex spheroid growth, percent test/control
Assay: Anticancer human tumor NCI-H196 cell line growth inhibition [AhR];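 note: seven days of drug exposure starting three days after plating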;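 for viability, T/C: 100% = DMSO vehicle control wells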
Conditions: for IC50: curve of first compound; for viability, T/C: stronger effect = lower value
Method in brief: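 Spheroids combined tumor cells with HUVEC endothelial cells and human MSCs as stroma. AhR antagonists were paired with standard or investigational drugs, each dosed in half-log steps down from near clinical Cmax, or from 10 microM where Cmax was unknown.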

[1] = second compound 0.1 µM, first compound 0.0316 µM
[2] = second compound 0.1 µM, first compound 0.1 µM
[3] = second compound 0.1 µM, first compound 0.316 µM
[4] = second compound 0.1 µM, first compound 1 µM
[5] = second compound 0.1 µM, first compound 3.16 µM
[6] = second compound 0.1 µM, first compound 10 µM
[7] = second compound 0.316 µM, first compound 0.0316 µM
[8] = second compound 0.316 µM, first compound 0.1 µM
[9] = second compound 0.316 µM, first compound 0.316 µM
[10] = second compound 0.316 µM, first compound 1 µM
[11] = second compound 0.316 µM, first compound 3.16 µM
[12] = second compound 0.316 µM, first compound 10 µM
[13] = second compound 1 µM, first compound 0.0316 µM
[14] = second compound 1 µM, first compound 0.1 µM
[15] = second compound 1 µM, first compound 0.316 µM
[16] = second compound 1 µM, first compound 1 µM
[17] = second compound 1 µM, first compound 3.16 µM
[18] = second compound 1 µM, first compound 10 µM
[19] = second compound 3.16 µM, first compound 0.0316 µM
[20] = second compound 3.16 µM, first compound 0.1 µM
[21] = second compound 3.16 µM, first compound 0.316 µM
[22] = second compound 3.16 µM, first compound 1 µM
[23] = second compound 3.16 µM, first compound 3.16 µM
[24] = second compound 3.16 µM, first compound 10 µM
[25] = second compound 10 µM, first compound 0.0316 µM
[26] = second compound 10 µM, first compound 0.1 µM
[27] = second compound 10 µM, first compound 0.316 µM
[28] = second compound 10 µM, first compound 1 µM
[29] = second compound 10 µM, first compound 3.16 µM
[30] = second compound 10 µM, first compound 10 µM

SMILES	IC50 (second compound 0.1 µM) [µM]	IC50 (second compound 0.316 µM) [µM]	IC50 (second compound 1 µM) [µM]	IC50 (second compound 3.16 µM) [µM]	IC50 (second compound 10 µM) [µM]	viability, T/C [1] [%]	viability, T/C [2] [%]	viability, T/C [3] [%]	viability, T/C [4] [%]	viability, T/C [5] [%]	viability, T/C [6] [%]	viability, T/C [7] [%]	viability, T/C [8] [%]	viability, T/C [9] [%]	viability, T/C [10] [%]	viability, T/C [11] [%]	viability, T/C [12] [%]	viability, T/C [13] [%]	viability, T/C [14] [%]	viability, T/C [15] [%]	also measured
COc1cc(Nc2ncc3c(n2)-c2ccc(Cl)cc2C(c2c(F)cccc2OC)=NC3)ccc1C(=O)O + Cc1cncc(-c2nc(NCCc3c[nH]c4ccccc34)c3ncn(C(C)C)c3n2)c1	> 10	> 10	> 10	> 10	> 10	96	99.5	98.4	103	118	153	98.7	94.3	109	111	131	129	94.1	102	120	viability, T/C [16]: 114%; viability, T/C [17]: 104%; viability, T/C [18]: 148%; viability, T/C [19]: 101%; viability, T/C [20]: 104%; viability, T/C [21]: 127%; viability, T/C [22]: 115%; viability, T/C [23]: 118%; viability, T/C [24]: 145%; viability, T/C [25]: 83.1%; viability, T/C [26]: 91.8%; viability, T/C [27]: 106%; viability, T/C [28]: 97.7%; viability, T/C [29]: 104%; viability, T/C [30]: 143%
NS(=O)(=O)OCC1CC(n2ccc3c(NC4CCc5ccccc54)ncnc32)CC1O (stereo not given) + Cc1cncc(-c2nc(NCCc3c[nH]c4ccccc34)c3ncn(C(C)C)c3n2)c1	> 10	> 10	> 10	> 10	> 10	73.7	65.6	57.3	48.6	77	68.2	80	63.3	56.3	55.6	58.1	64.9	74.3	66.7	60.6	viability, T/C [16]: 49.3%; viability, T/C [17]: 72%; viability, T/C [18]: 59.3%; viability, T/C [19]: 81.8%; viability, T/C [20]: 81.8%; viability, T/C [21]: 66.8%; viability, T/C [22]: 53.8%; viability, T/C [23]: 60.7%; viability, T/C [24]: 66.2%; viability, T/C [25]: 102%; viability, T/C [26]: 91.7%; viability, T/C [27]: 96.4%; viability, T/C [28]: 79.6%; viability, T/C [29]: 74.8%; viability, T/C [30]: 61.6%
O=C(C=Cc1cccc(S(=O)(=O)Nc2ccccc2)c1)NO + Cc1cncc(-c2nc(NCCc3c[nH]c4ccccc34)c3ncn(C(C)C)c3n2)c1	1.3	1.36	1.12	1.29	1.38	102	102	79.6	63.6	18.5	0.47	103	103	96.2	64.1	12.2	0.53	110	115	110	viability, T/C [16]: 51.9%; viability, T/C [17]: 18.3%; viability, T/C [18]: 1.69%; viability, T/C [19]: 114%; viability, T/C [20]: 99.5%; viability, T/C [21]: 96.7%; viability, T/C [22]: 55.8%; viability, T/C [23]: 21.7%; viability, T/C [24]: 0.41%; viability, T/C [25]: 89.3%; viability, T/C [26]: 87.8%; viability, T/C [27]: 79.5%; viability, T/C [28]: 64.3%; viability, T/C [29]: 15.7%; viability, T/C [30]: 0.74%
